This is an account of results in patent US11560385B2, “Proteasome activity enhancing compounds” (Proteostasis Therapeutics, Inc., priority 2018, dated 2023).

In the assay the target is USP14 (Homo sapiens (Human), UniProt P54578). Nature of the assay: Usp14 inhibition assay (Example 57B, B-series compounds). Conditions: IC50 class; average value from a minimum of two experimental determinations. The format is biochemical. From the text: Example 57B: Usp14 Inhibition Assay
USP14, sequence (P54578 whole entry, looked up): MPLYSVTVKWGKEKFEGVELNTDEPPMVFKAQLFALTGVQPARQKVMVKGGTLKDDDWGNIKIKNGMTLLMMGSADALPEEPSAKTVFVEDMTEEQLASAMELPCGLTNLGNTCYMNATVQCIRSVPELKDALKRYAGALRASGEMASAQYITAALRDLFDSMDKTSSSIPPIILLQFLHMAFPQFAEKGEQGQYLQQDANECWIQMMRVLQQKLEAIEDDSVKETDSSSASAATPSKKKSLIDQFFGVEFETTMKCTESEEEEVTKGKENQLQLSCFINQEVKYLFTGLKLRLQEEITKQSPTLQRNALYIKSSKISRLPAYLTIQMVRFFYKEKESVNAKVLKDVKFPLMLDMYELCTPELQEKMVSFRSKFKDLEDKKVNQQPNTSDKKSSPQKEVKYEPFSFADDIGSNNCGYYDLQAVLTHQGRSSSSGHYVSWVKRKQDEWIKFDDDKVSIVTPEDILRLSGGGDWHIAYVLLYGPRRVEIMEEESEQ
The IC50 values in the Table below represent the average value from a minimum of two experimental determinations.
In turn, `Cc1c(C(=O)CN2[C@@H]3CC[C@H]2[C@@H](O)C3)cc(C2CCCCC2)n1-c1ccc(C#N)cc1` (racemic) [Example 111B, (±)-4-(5-Cyclohexyl-3-(2-((1R,2R,4S)-2-hydroxy-7-azabicyclo[2.2.1]heptan-7-yl)acetyl)-2-methyl-1H-pyrrol-1-yl)benzonitrile] gave a 50% inhibitory concentration (IC50) of 50 to 500 nM.
`Cc1c(C(=O)CN2C3CCC2[C@@H](O)C3)cc(CC2CC(F)(F)C2)n1-c1ccc(C#N)cc1` (mixture of isomers) [Example 135B, (±)-4-(5-((3,3-Difluorocyclobutyl)methyl)-3-(2-((2R)-2-hydroxy-7-azabicyclo[2.2.1]heptan-7-yl)acetyl)-2-methyl-1H-pyrrol-1-yl)benzonitrile]: the half-maximal inhibitory concentration (IC50) is less than 50 nM.
In the case of `Cc1c(C(=O)CN2[C@@H]3CC[C@H]2[C@@H](O)C3)cc(CCCC2CCOCC2)n1-c1ccc(C#N)cc1` (racemic) [Example 2B, (±)-4-(3-(2-((1S,2S,4R)-2-Hydroxy-7-azabicyclo[2.2.1]heptan-7-yl)acetyl)-2-methyl-5-(3-(tetrahydro-2H-pyran-4-yl)propyl)-1H-pyrrol-1-yl)benzonitrile] it was less than 50 nM.
In the case of `Cc1cc(C(=O)CN2[C@@H]3CC[C@H]2[C@@H](C)[C@@H]3C)c(C)n1-c1ccc(C#N)cc1` (racemic) [Example 140B, (±)-4-(3-(2-((1R,2R,3R,4S)-2,3-Dimethyl-7-azabicyclo[2.2.1]heptan-7-yl)acetyl)-2,5-dimethyl-1H-pyrrol-1-yl)benzonitrile] it was 50 to 500 nM; in that of `Cc1c(C(=O)CN2C3CCC2[C@@H](O)C3)cc(CCCOC(F)(F)F)n1-c1ccc(C#N)cc1` (mixture of isomers) [Example 155B, (±)-4-(3-(2-((1R,2R,4R)-2-Hydroxy-7-azabicyclo[2.2.1]heptan-7-yl(acetyl)-2-methyl-5-(3-(trifluoromethoxy)propyl)-1H-pyrrol-1-yl)benzonitrile], 50 to 500 nM.
The figure for `Cc1c(C(=O)CN2C3CCC2[C@@H](O)C3)cc(/C=C/CC2CC(C)(C)OC2=O)n1-c1ccc(C#N)cc1` (mixture of isomers) [Example 52B, (±)-4-(5-((E)-3-(5,5-Dimethyl-2-oxotetrahydrofuran-3-yl)prop-1-en-1-yl)-3-(2-((1S,2S,4R)-2-hydroxy-7-azabicyclo[2.2.1]heptan-7-yl)acetyl)-2-methyl-1H-pyrrol-1-yl)benzonitrile] is less than 50 nM.
For the molecule `Cc1cc(C(=O)CN2C3CCCC2CC(O)C3)c(C)n1-c1ccc(C#N)cc1` [Example 85B, 4-(3-(2-((1R,3s,5S)-3-Hydroxy-9-azabicyclo[3.3.1]nonan-9-yl)acetyl)-2,5-dimethyl-1H-pyrrol-1-yl)benzonitrile], the IC50 lay within 50 to 500 nM.
The molecule `Cc1c(CCCCS(C)(=O)=O)c(C(=O)CN2C3CCC2[C@@H](O)C3)c(C)n1-c1ccc(C#N)cc1` (mixture of isomers) [Example 19B, (±)-4-(3-(2-((2R)-2-Hydroxy-7-azabicyclo[2.2.1]heptan-7-yl)acetyl)-2,5-dimethyl-4-(4-(methylsulfonyl)butyl)-1H-pyrrol-1-yl)benzonitrile] registered an IC50 of more than 500 nM.
Take `Cc1c(C(=O)CN2C3CCC2C(O)C3)cc([C@@H](C)C2CCC2)n1-c1ccc(C#N)cc1` (mixture of isomers) [Example 150B, (±)-4-(5-((S)-1-Cyclobutylethyl)-3-(2-((2R)-2-hydroxy-7-azabicyclo[2.2.1]heptan-7-yl)acetyl)-2-methyl-1H-pyrrol-1-yl)benzonitrile]: the half-inhibitory concentration (IC50) is 50 to 500 nM.
In the case of `Cc1c(F)c(C(=O)CN2C3CC4CC2CC(C3)O4)c(C)n1-c1ccc(C#N)c(F)c1` (racemic) [Example 116B, (±)-4-(3-(2-((1r,3r)-2-Oxa-6-azaadamantan-6-yl)acetyl)-4-fluoro-2,5-dimethyl-1H-pyrrol-1-yl)-2-fluorobenzonitrile] it was 50 to 500 nM; in that of `Cc1c(C#N)c(C(=O)CN2C3CCC2[C@@H](O)C3)c(C)n1-c1ccc(C#N)cc1` (mixture of isomers) [Example 33B, (±)-1-(4-Cyanophenyl)-4-(2-((2R)-2-hydroxy-7-azabicyclo[2.2.1]heptan-7-yl)acetyl)-2,5-dimethyl-1H-pyrrole-3-carbonitrile], more than 500 nM; in that of `Cc1cc(C(=O)CN2C3CCC2CC3)c(C)n1-c1ccc(C#N)cc1` [Example 63B, 4-(3-(2-(7-Azabicyclo[2.2.1]heptan-7-yl)acetyl)-2,5-dimethyl-1H-pyrrol-1-yl)benzonitrile], more than 500 nM.
`Cc1c(C(=O)CN2[C@@H]3CC[C@@H]2[C@@H](O)C3)cc(CC2CCOCC2)n1-c1ccc(C#N)cc1` (racemic) [Example 44B, (±)-4-(3-(2-((1R,2S,4R)-2-Hydroxy-7-azabicyclo[2.2.1]heptan-7-yl)acetyl)-2-methyl-5-((tetrahydro-2H-pyran-4-yl)methyl)-1H-pyrrol-1-yl)benzonitrile]: the IC50 was less than 50 nM.
The figure for `Cc1c(C(=O)CN2C3CCC2CC3)c(C)n(-c2ccc(C#N)cc2)c1/C=C/CCS(C)(=O)=O` [Example 32B, (E)-4-(3-(2-(7-Azabicyclo[2.2.1]heptan-7-yl)acetyl)-2,4-dimethyl-5-(4-(methylsulfonyl)but-1-en-1-yl)-1H-pyrrol-1-yl)benzonitrile] is 50 to 500 nM; for `Cc1c(C(=O)CN2C3CCC2[C@@H](O)C3)cc(COCCC#N)n1-c1ccc(C#N)cc1` (mixture of isomers) [Example 5B, (±)-4-(5-((2-Cyanoethoxy)methyl)-3-(2-((2R)-2-hydroxy-7-azabicyclo[2.2.1]heptan-7-yl)acetyl)-2-methyl-1H-pyrrol-1-yl)benzonitrile] it is more than 500 nM.
In turn, `Cc1c(C(=O)CN2C3CCC2CC3)cc(CCCCS(C)(=O)=O)n1-c1ccc(C#N)cc1` [Example 30B, 4-(3-(2-(7-Azabicyclo[2.2.1]heptan-7-yl)acetyl)-2-methyl-5-(4-(methylsulfonyl)butyl)-1H-pyrrol-1-yl)benzonitrile] registered an IC50 of less than 50 nM.
Molecule `Cc1c(C(=O)CN2[C@@H]3CC[C@H]2[C@@H](O)C3)cc(C2CC(F)(F)C2)n1-c1ccc(C#N)cc1` (racemic) [Example 131B, (±)-4-(5-(3,3-Difluorocyclobutyl)-3-(2-((1R,2R,4S)-2-hydroxy-7-azabicyclo[2.2.1]heptan-7-yl)acetyl)-2-methyl-1H-pyrrol-1-yl)benzonitrile] gave an IC50 of 50 to 500 nM.
In the case of `Cc1c(Cl)c(C(=O)CN2C3CCC2[C@@H](O)C3)c(C)n1-c1ccc(C#N)cc1` (mixture of isomers) [Example 77B, (±)-4-(3-Chloro-4-(2-((2R)-2-hydroxy-7-azabicyclo[2.2.1]heptan-7-yl)acetyl)-2,5-dimethyl-1H-pyrrol-1-yl)benzonitrile] it was 50 to 500 nM.
The figure for `Cc1c(C(=O)CN2[C@@H]3CC[C@H]2[C@@H](O)C3)cc(CCCCC2CCOCC2)n1-c1ccc(C#N)cc1` (racemic) [Example 14B, (±)-4-(3-(2-((1S,2S,4R)-2-Hydroxy-7-azabicyclo[2.2.1]heptan-7-yl)acetyl)-2-methyl-5-(4-(tetrahydro-2H-pyran-4-yl)butyl)-1H-pyrrol-1-yl)benzonitrile] is less than 50 nM; for `Cc1c(C(=O)CN2C3CCC2[C@@H](O)C3)c(Cl)c(/C=C/CC(C)(C)C#N)n1-c1ccc(C#N)cc1` (mixture of isomers) [Example 46B, (±)-4-(3-Chloro-2-((E)-4-cyano-4-methylpent-1-en-1-yl)-4-(2-((2R)-2-hydroxy-7-azabicyclo[2.2.1]heptan-7-yl)acetyl)-5-methyl-1H-pyrrol-1-yl)benzonitrile] it is 50 to 500 nM.
The molecule `Cc1c(C(=O)CN2C3CCC2[C@@H](O)C3)cc(CCCC2(C)COC2)n1-c1ccc(C#N)cc1` (mixture of isomers) [Example 42B, (±)-4-(3-(2-((2R)-2-Hydroxy-7-azabicyclo[2.2.1]heptan-7-yl)acetyl)-2-methyl-5-(3-(3-methyloxetan-3-yl)propyl)-1H-pyrrol-1-yl)benzonitrile] yielded a 50% inhibitory concentration (IC50) of less than 50 nM.
The figure for `Cc1cc(C(=O)CN2[C@@H]3CC[C@@H]2CC(O)(C(F)(F)F)C3)c(C)n1-c1ccc(C#N)cc1` (stereo partly drawn) [Example 74B, 4-(3-(2-((1R,3r,5S)-3-Hydroxy-3-(trifluoromethyl)-8-azabicyclo[3.2.1]octan-8-yl)acetyl)-2,5-dimethyl-1H-pyrrol-1-yl)benzonitrile] is more than 500 nM; for `Cc1cc(C(=O)CN2[C@@H]3CC[C@@H]2CC(O)C3)c(C)n1-c1ccc(C#N)cc1` (stereo partly drawn) [Example 66B, 4-(3-(2-((1R,3r,5S)-3-Hydroxy-8-azabicyclo[3.2.1]octan-8-yl)acetyl)-2,5-dimethyl-1H-pyrrol-1-yl)benzonitrile] it is 50 to 500 nM; for `Cc1cc(C(=O)CN2[C@@H]3CC[C@H]2[C@H](C)[C@@H]3C)c(C)n1-c1ccc(C#N)cc1` [Example 138B, 4-(3-(2-((1R,2S,3R,4S)-2,3-Dimethyl-7-azabicyclo[2.2.1]heptan-7-yl)acetyl)-2,5-dimethyl-1H-pyrrol-1-yl)benzonitrile] it is more than 500 nM.
As for `CCC(C)c1cc(C(=O)CN2C3CCC2[C@@H](O)C3)c(C)n1-c1ccc(C#N)cc1` (mixture of isomers) [Example 114B, (±)-4-(5-(sec-Butyl)-3-(2-((1R,2R,4S)-2-hydroxy-7-azabicyclo[2.2.1]heptan-7-yl)acetyl)-2-methyl-1H-pyrrol-1-yl)benzonitrile], the IC50 lay within 50 to 500 nM.
The figure for `Cc1c(C(=O)CN2[C@@H]3CC[C@@H]2[C@@H](O)C3)cc(/C=C/CN)n1-c1ccc(C#N)cc1` (racemic) [Example 156B, (±)-4-(5-((E)-3-Aminoprop-1-en-1-yl)-3-(2-((1S,2R,4S)-2-hydroxy-7-azabicyclo[2.2.1]heptan-7-yl)acetyl)-2-methyl-1H-pyrrol-1-yl)benzonitrile] is less than 50 nM.
Take `Cc1cc(C(=O)CN2C3CCC2[C@@H](CC(C)(C)O)C3)c(C)n1-c1ccc(C#N)cc1` (mixture of isomers) [Example 148B, (±)-4-(3-(2-((2S)-2-(2-Hydroxy-2-methylpropyl)-7-azabicyclo[2.2.1]heptan-7-yl)acetyl)-2,5-dimethyl-1H-pyrrol-1-yl)benzonitrile]: the IC50 was more than 500 nM.
In the case of `Cc1c(C(=O)CN2C3CCC2CC3)c(C)n(-c2ccc(C#N)cc2)c1-c1ccc(C#N)cc1` [Example 16B, 4,4′-(4-(2-(7-Azabicyclo[2.2.1]heptan-7-yl)acetyl)-3,5-dimethyl-1H-pyrrole-1,2-diyl)dibenzonitrile] it was more than 500 nM.

As a reminder, the IC50 is the midpoint of a concentration-inhibition curve. High values mean a need for much substance, low ones inhibition by little substance.
